How the values were obtained:
[1] = test system: brain receptors of the NMDA type; assay: Complementary examination of neurotoxic effects of xenon and N2O versus air on NMDA-type brain receptors (FIG. 4); type: in vivo
Method: Based on this observation, complementary examinations were carried out in order to determine the neurotoxic effects of the xenon and of the nitrous oxide (N2O), at various amounts, compared to air, on brain receptors of the NMDA type.

[2] = test system: transient focal cerebral ischemia by middle cerebral artery occlusion (MCAO); assay: Transient focal cerebral ischemia by middle cerebral artery occlusion (MCAO) in rats, infarct volume after gas inhalation; type: in vivo; details: rat MCAO, compared to air (mixture No. 1); for post-ischemic volume of cortical infarction: FIG. 3b; for post-ischemic volume of striatal infarction: FIG. 3c; for post-ischemic volume of oedema: FIG. 3d
Method: On day 1, focal ischemia was induced in each of the rats by middle cerebral artery occlusion (MCAO), for a period of 1 h 30 minutes.
The transient focal cerebral ischemia by MCAO is obtained conventionally by introducing a flexible nylon thread 1, represented diagrammatically in FIG. 1 (length 6.5 mm, diameter 180 μm), a portion 2 of the proximal end of which has a diameter greater than that of the thread (length 3 mm, diameter 380 μm), into the vascular system of the rat, as far as the region of the ipsilateral hemisphere so as to cause an embolism therein, i.e. an ischemia.
Next, the rats are reperfused for 10 to 20 minutes, and are then made to inhale several mixtures of gases, namely: • mixture No. 1: air (control) • mixture No. 2: N2O (75% vol), the remainder being oxygen (25%) • mixture No. 3: xenon (50% vol), the remainder being oxygen (20 to 25%) and nitrogen (30 to 25%), respectively • mixture No. 4: xenon (75% vol), the remainder being oxygen (25%).
On day 2, i.e. 24 hours after reperfusion, the rats are killed, the brains are recovered and frozen, and thin sections 40 μm thick are cut and then stained with cresyl violet, as shown in FIG. 5.
The volume of neuronal death is calculated, from the sections obtained after staining, in a conventional manner using an appropriate, commercially available conventional program.
In fact, as shown diagrammatically in FIG. 2, the cerebral ischemia engenders, in general, in 24 hours, an infarction in the region which has been subjected to ischemia (penumbra), leading to neuronal death in the brain cells present in a considerable portion of this region.

[3] = test system: glutamergic receptors for N-methyl-D-aspartate, NMDA; details: in vitro, literature (Franks et al.; Jevtovic-Todorovic et al.; Yamakura and Harris); cited from earlier work

SMILES	neuroprotection, comparison between doses ([1]; N2O at 75% by volume compared to N2O at 50%)	volume of deteriorated NMDA receptors ([1]; in vivo)	post-ischemic volume of cortical infarction [2]	post-ischemic volume of striatal infarction [2]	post-ischemic volume of oedema [2]	behaviour at NMDA receptors [3]	volume of deteriorated NMDA receptors ([1]; dose of 50% or 75% by volume, compared to control (air), FIG. 4)	neuroprotection, comparison between doses ([1]; xenon at 50% by volume compared to xenon at 75%)
[N-]=[N+]=O [N2O, nitrous oxide]	more neuroprotective	smaller volume	decrease	decrease	decrease	low-affinity antagonists	–	–
[Xe] [xenon]	–	–	decrease	decrease	decrease	low-affinity antagonists	smaller volume	more neuroprotective

From patent US7405241B2, “Use of N2O in the treatment of post-ischemic brain cell deterioration” (Air Liquide Sante (International), priority 2003, dated 2008)
